Test results from a melting point compilation (Tetko et al.; mined from patent text by program, amines drawn as free bases though some values may be those of a salt).

melting point | Compound
164 to 166 °C | CC1CC(=O)N(c2ccccn2)N=C1c1ccc(OC2CCN(C(=O)OC(C)(C)C)CC2)cc1 (centres undefined)
77 to 79 °C | O=C1NC(=O)C(c2c3n(c4ccccc24)CCC(CO)C3)=C1c1cccc(C(F)(F)F)c1 (centres undefined)
206 to 207 °C | CC1=C(C(=O)OC(C)(C)C)C(c2ccc(Br)cc2)C(C(=O)OC(C)(C)C)=C(C)N1
128 to 129 °C | O=C1OC(CN2CCC(O)(c3ccc(F)cc3)CC2)CN1c1ccccc1 (centres undefined)
118 to 120 °C | CC(C)N1CC2(COc3ccccc3OC2)OC1=O
98 to 100 °C | COC(=O)C(C#N)c1c[nH]c2ccc(OC)cc12 (centres undefined)
122 to 125 °C | CC1(O)CC(=O)OC(CCc2ccccc2OCc2ccccc2)C1Br (centres undefined)
143 to 144 °C | O=C(OCC1OC(n2ccc(=O)[nH]c2=O)C(OC(=O)c2ccccc2)C1OC(=O)c1ccccc1)c1ccccc1 (centres undefined)
321 °C | CCOC(=O)c1c2n(c3ccc(Cl)cc3c1=O)CCS2
234 °C | CC(C)(C)C(=O)Nc1nc(Cl)c2c(n1)[nH]c1ccccc12
136 °C | N=C(N)NCCCCCC(=O)Oc1ccc2cc(C(=N)N)ccc2c1
202 °C | O=S(=O)(NCc1ccccc1)c1cccc(-c2cc(-c3nc(-c4ccc(C(F)(F)F)cc4)cc(C(F)(F)F)n3)ccn2)c1
87.2 to 88.2 °C | CCCC(C)(Br)C(=O)Nc1ccc(C(C)C)cc1 (centres undefined)
142 to 144 °C | COc1cccc(C2C(=O)c3ccccc3C2=O)c1
105 to 106 °C | CCCc1c(OCc2ccccc2)ccc2c(C)c(C(=O)c3ccc(OC)cc3)oc12
79 to 81 °C | CCOc1cccc(-c2ccc(C3=CCN(S(=O)(=O)CC(=O)OC)CC3)cc2C)c1
243 to 245 °C | Cc1ccc(-c2nc3sc4ccccc4n3c2CC(N)=O)s1
295 to 297 °C | CN1C(=O)CCCc2cc(Nc3ncc(Cl)c(Nc4ccc(N5CCCCC5)cc4C(N)=O)n3)ccc21
137 to 141 °C | CC(C)NCC(O)COc1cccc(C2=NNC(=O)CC2)c1 (centres undefined)
175 °C | CN1CCN(C(=O)COC2c3ccccc3C(=O)N2c2ccc3ccc(Cl)nc3n2)CC1 (centres undefined)
> 200 °C | CSc1nc(N)c(C#N)c(N2CCc3ccccc3CC2)n1
116 °C | COC(=O)c1ccc(C(O)c2ccc(C(=O)OC)cc2)cc1
266 °C | CCCC1=C(C(=O)OCC)C(c2ccncc2)c2c[nH]nc2N1 (centres undefined)
150 to 155 °C | CCOC(=O)Nc1cc(N[C@H](C)C(=O)c2ccccc2)c([N+](=O)[O-])c(N)n1

melting point | Compound
> 280 °C | COc1cc(C)c(/C=C/c2nc3c([nH]2)c(=O)n(C)c(=O)n3C)cc1C
55 to 65 °C | COc1cc2cc(C(=O)Nc3cc(OCc4ccccc4)c4ccccc4c3CCOC(C)=O)[nH]c2c(OC)c1OC
144 °C | C=C(C(=O)O)c1ccccc1OC
62 to 63 °C | N#CCc1cccn1Cc1ccccc1
184 to 186 °C | Cc1cc(C)cc(NC(=O)Cc2ccc(OC3(C(=O)O)CCCC3C)cc2)c1 (centres undefined)
204 to 206 °C | COCCc1nc2c(N)nc3ccccc3c2n1CC(C)(C)CNS(C)(=O)=O
259 to 261 °C | CCOCc1nc2c(N)nc3ccc(NC(=O)C(C)C)cc3c2n1CC(C)(C)O
280 to 281 °C | O=C1c2ccccc2C(=O)N1Cc1cccc(-c2nc(=O)c3ccccc3s2)n1
287 to 290 °C | COc1cc(Cc2cnc(N)nc2N)cc2c(C)ccnc12
193 to 205 °C | Fc1ccc(-c2cc3ncnc(Nc4ccc5[nH]ccc5c4)c3s2)cc1
133 to 134 °C | O=C(CCBr)OCN1C(=O)NC(c2ccccc2)(c2ccccc2)C1=O
80 to 81 °C | OCc1ccccc1C(F)(F)C(F)(F)c1ccccc1
104 to 105 °C | CCOC(=O)c1cnc(-c2ccccc2OCC2CC2)[nH]c1=O
178 to 179 °C | O=S1(=O)NCN(C2CC2)c2ccc(Br)cc21
110 °C | CN(C)c1ccc(C(=O)c2cccc(N)c2)cc1
74 to 75 °C | COc1cc(Cl)c2ncccc2c1
218 to 220 °C | O=C(Nc1cccc2c1C(=O)c1c-2n[nH]c1C1CCN(C(=O)c2cccs2)CC1)NN1CCOCC1
178 °C | Cc1ncn(Nc2ccccc2)c1C
151 to 153 °C | COc1cc2ccc(-c3cc(OCc4ccccc4)c(OC)cc3[N+](=O)[O-])cc2cc1OC
110 to 111 °C | N#CC(C(=O)NC1CCC1)C(=O)C1CC1 (centres undefined)
160 °C | CCOc1ccc2c(c1)n(C1CCCCC1)c(=O)n2S(=O)(=O)c1ccc(C(=O)NC2Cc3ccccc3C2)cc1OC
194 to 196 °C | Clc1nc(Nc2ccccc2)c2ccccc2n1
91 to 92 °C | CC1(C)OC(C=Cc2ccc(Cl)cc2)=CC1=O
164 to 165 °C | CCOc1cc([N+](=O)[O-])ccc1NC(C)=O

melting point | Compound
104 to 105 °C | CC(C)(C)OC(=O)NCCOc1noc2ccc(F)cc12
121 to 122 °C | CC(=O)NC(CCc1ccc(C(O)CCCCCCc2ccccc2)cc1)(CO[Si](C)(C)C(C)(C)C)CO[Si](C)(C)C(C)(C)C (centres undefined)
303 to 305 °C | Cc1nn(C)c2c(=O)[nH]cnc12
106 to 107 °C | O=C(O)CCCC1Cc2ccc(F)cc2C1=O (centres undefined)
145 to 148 °C | Nc1ccc(S(=O)(=O)N2C=CC(CCO)Sc3ccccc32)cc1 (centres undefined)
140 to 160 °C | COC(=O)c1ccccc1-c1ccc(CNc2nc(=O)[nH]c3ccccc23)cc1
163 to 165 °C | O=C1Nc2ccccc2C(c2ccccc2)N1CC1CCN(Cc2ccccc2)CC1 (centres undefined)
> 251 °C | COc1ccccc1CN[C@H]1CCCN[C@H]1C(C)(C)C (relative stereo)
89 to 92 °C | COCCOc1c(S(C)(=O)=O)ccc(C(=O)O)c1Cl
119 to 120 °C | CC(=O)Oc1ccc(-c2c(C)c3cccc(OC(C)=O)c3oc2=O)c(OC(C)=O)c1
215 to 219 °C | Cn1cc(C(=O)NCc2ccc(Cl)cc2)c(=O)c2cc(CN3CCSCC3)ccc21
156 to 157 °C | COC(=O)c1csc(NC(=O)C(CC2CCCC2)c2ccc(Cl)cc2)n1 (centres undefined)
220 to 222 °C | CCCC1=C(C(=O)OCC)C(c2cccc(C#N)c2OC)c2c[nH]nc2N1 (centres undefined)
184 °C | COn1c(=S)n(C)c(=O)c2ccccc21
152 to 153 °C | CCCCCCC(CC(=O)Nc1cc(C(N)=O)ccc1C(C)(C)C)c1ccc(OC)cc1OC (centres undefined)
158 to 160 °C | CN(C)S(=O)(=O)n1c(C(=S)NC(O)C(Cl)(Cl)Cl)nc2cc(Cl)c(Cl)cc21 (centres undefined)
96 to 98 °C | CCOC(=O)c1c(CN(CC)CC)nc2sc3c(c2c1-c1ccc(OC)c(OC)c1)CCN(C(=O)c1ccc(Cl)cc1)C3
258 to 260 °C | COc1ccc(-c2cc(OCC(=O)O)nc(Nc3ccc(OC)c(Cl)c3)n2)cc1
187 °C | COc1cc(Nc2nccc(-c3cc(OC)c(OC)c(OC)c3)n2)cc(OC)c1OC
235 to 238 °C | N#Cc1cccc(-c2cc(-c3ccc(C#N)cc3[N+](=O)[O-])no2)c1
156 to 158 °C | CN(C)c1nc(N2CCOCC2)nc(-n2ccnc2)n1
158 to 159 °C | CCOC(=O)C1=CN(c2ccc(Cl)c(Cl)c2Cl)N(N)C1
165 to 167 °C | CSC(=O)C(=O)c1ccnc(NC=O)c1
272 °C | NS(=O)(=O)c1cccc(NC(=O)c2cnn3c(C(F)F)cc(-c4ccc(C(F)(F)F)c(Cl)c4)nc23)c1

melting point | Compound
201 to 202 °C | CC1=CC(O)C(OC(=O)c2nc[nH]c2C)C(C)(C)CC1=O (centres undefined)
150 to 152 °C | COc1ccc(-c2cc(NC(=O)CCCCBr)n[nH]2)cc1
185 to 190 °C | N#Cc1ccc2oc3c(c2c1)CCC(C(=O)O)C3 (centres undefined)
274 °C | COc1ccc(C2=NN(C(=O)c3cccc(NC(=O)c4ccc(NC(=O)c5ccc([N+](=O)[O-])cc5)cc4)c3)CCC2)cc1OCCN(C)C
150 °C | COc1ccc(COC(=O)Nc2cncc(O)c2CCCOc2cccnc2Oc2cccc(Cl)c2)cc1
179 to 181 °C | N#CC(C#N)C(c1cccc2ccccc12)c1cccc2ccccc12
98 to 99 °C | COc1nc(OC)c(C=CC(C)=O)c(OC)n1
210 to 214 °C | CCn1c(=O)c(-c2c(Cl)cccc2Br)cc2cnc(Nc3ccccc3)nc21
248 °C | CP(=O)(O)CCC(=O)Nc1c(Br)cc(Br)cc1Br
191 °C | O=c1nc(-c2ccc(Cl)s2)cc(C(F)(F)F)[nH]1
170 to 172 °C | c1cc2c(c3c1CCN3)CCS2
169 to 171 °C | CC(=O)NC(C)(C)c1ccc(C(C)N2CCN(c3ccccc3)CC2)cc1 (centres undefined)
122 to 124 °C | C=CC(=O)N1CC(c2ccc(Cl)cc2)Sc2ccccc21 (centres undefined)
84 to 85 °C | CS(=O)(=O)OCCCCC1C(=O)Nc2ccccc21 (centres undefined)
141 to 143 °C | CC(=NOCCOc1ccc(C[C@H](Oc2ccc(C(C)(C)C)cc2)C(=O)O)cc1)c1ccc(-c2ccccc2)cc1
209 to 210 °C | CCc1cc(NCc2nc3ccccc3s2)c(=O)[nH]c1C
185 to 187 °C | Cc1nc2c(O)c(CC[C@H](O)c3ccccc3)c(C(=O)N(C)C)cn2c1C
62 to 63 °C | CN(C(=O)c1ccc2cnccc2n1)C1CCCCC1
180 to 182 °C | CCOC(=O)N1C(=O)N(C(=O)OCC)C2(C1=O)C(=O)N(Cc1ccc(Cl)c(Cl)c1)c1ccccc12 (centres undefined)
161 to 162 °C | Cc1cc2c(cc1C)SC(CCCN1CCN(c3ccc(F)cc3)CC1)C(=O)N2 (centres undefined)
98 to 100 °C | COC(=O)Cc1c(C)n(Cc2ccccc2OC)c2ccc(OC)cc12
287 °C | O=c1[nH]c(=O)c2ccc(C(c3ccccc3)n3ccnc3)cc2[nH]1 (centres undefined)

Compound | melting point
CN1C(=S)N(c2ccc(C#N)c(C(F)(F)F)c2)C(=O)C1(CO)CO | 169 to 170 °C
CC(=O)OC1CCC2(C)C(=CCC3C4CCC(=O)C4(C)CC(OC(C)=O)C32)C1 (centres undefined) | 177 to 179 °C
CCN(CC)C(=O)c1ccc(C(=C2CCNCC2)c2cccc(OC)c2)cc1 | > 90 °C
CN1CCCN=C1C(Br)(Br)[N+](=O)[O-] | 106 to 107 °C
CNC(=O)c1ccccc1Nc1nc(Nc2ccc3c(c2)CCN(CCF)CC3)ncc1Cl | 170 to 174 °C
